# Reference: ChEMBL document CHEMBL1153108, “Neolignans from Piper kadsura and their anti-neuroinflammatory activity” (Bioorg Med Chem Lett, 2010)
# Active and inactive are the calls of the source. No cut-off for these calls is given here.
# Experiments:
# BV-2 [1] = assay: Antineuroinflammatory activity in mouse BV2 cells assessed as inhibition of LPS-induced nitric oxide production at 20 uM after 24 hrs by Griess reagent method; assay type: functional; settings: for inhibition at 20 µM: BV-2, 24 h
# BV-2 [2] = assay: Antineuroinflammatory activity in mouse BV2 cells assessed as inhibition of LPS-induced nitric oxide production after 24 hrs by Griess reagent method; assay type: functional, cell-based; settings: for IC50: BV-2, 24 h
# [3] = Cytotoxicity against mouse BV2 cells by MTT assay; assay type: cell-based, BV-2; settings: read-out: INH
# BV-2 [4] = assay: Inhibition of LPS-induced iNOS expression in mouse BV2 cells at 5 to 20 uM after 6 hrs by Western blot analysis; assay type: functional, cell-based
# [5] = Effect on nitric oxide radical scavenging activity in sodium nitroprusside solution assessed as nitric oxide release after 15 mins by Griess reagent method; assay type: physicochemical; settings: 0.25 h
# [6] = target: T1, Nitric oxide synthase, inducible (Mus musculus) (UniProt P29477); assay: Inhibition of iNOS in LPS-stimulated mouse BV2 cells at 25 to 100 uM after 24 hrs by Griess reagent method; assay type: cell-based; settings: BV-2
# T1 sequence (whole entry): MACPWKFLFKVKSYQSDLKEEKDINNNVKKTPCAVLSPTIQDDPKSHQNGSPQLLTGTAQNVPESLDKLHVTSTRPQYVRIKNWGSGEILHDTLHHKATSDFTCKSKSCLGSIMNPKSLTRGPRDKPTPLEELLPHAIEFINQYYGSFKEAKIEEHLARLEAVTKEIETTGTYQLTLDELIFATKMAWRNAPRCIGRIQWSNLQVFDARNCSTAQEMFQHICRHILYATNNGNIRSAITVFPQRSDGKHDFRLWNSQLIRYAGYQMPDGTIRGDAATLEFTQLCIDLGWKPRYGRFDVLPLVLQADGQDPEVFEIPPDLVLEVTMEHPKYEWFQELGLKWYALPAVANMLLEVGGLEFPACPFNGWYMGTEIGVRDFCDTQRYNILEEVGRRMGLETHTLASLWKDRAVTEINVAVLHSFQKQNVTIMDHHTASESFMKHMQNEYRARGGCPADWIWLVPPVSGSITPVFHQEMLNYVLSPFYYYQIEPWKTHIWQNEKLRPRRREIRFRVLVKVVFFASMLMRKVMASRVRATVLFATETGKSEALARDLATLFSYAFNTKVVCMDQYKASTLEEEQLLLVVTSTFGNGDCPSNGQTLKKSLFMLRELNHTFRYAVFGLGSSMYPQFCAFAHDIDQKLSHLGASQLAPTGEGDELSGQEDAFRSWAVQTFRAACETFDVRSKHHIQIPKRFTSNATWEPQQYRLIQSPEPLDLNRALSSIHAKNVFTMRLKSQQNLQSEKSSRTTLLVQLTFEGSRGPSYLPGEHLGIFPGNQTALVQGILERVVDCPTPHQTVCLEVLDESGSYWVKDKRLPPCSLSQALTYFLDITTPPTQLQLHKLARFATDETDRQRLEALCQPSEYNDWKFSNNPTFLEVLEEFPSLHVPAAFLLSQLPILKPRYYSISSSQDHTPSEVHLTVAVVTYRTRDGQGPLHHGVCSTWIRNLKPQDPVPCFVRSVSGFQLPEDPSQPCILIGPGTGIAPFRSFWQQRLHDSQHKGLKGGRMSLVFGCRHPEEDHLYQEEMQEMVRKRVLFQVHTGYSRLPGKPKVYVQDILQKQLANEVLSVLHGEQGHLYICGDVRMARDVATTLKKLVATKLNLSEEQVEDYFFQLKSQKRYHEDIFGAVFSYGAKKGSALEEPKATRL
SMILES,inhibition at 20 µM (BV-2 [1]),IC50 (BV-2 [2]),inhibition (BV-2 [1]),also measured
C=CCc1ccc(OC)c(OC(C)C(OC(C)=O)c2ccc(OC)c(OC)c2)c1OC (stereo not given),27.2%,33.2 µM,–,–
C=CCC1=C[C@]2(OC)[C@H](C)[C@@H](c3ccc(OC)c(OC)c3)[C@H](C1=O)[C@@H]2OC(C)=O,–,–,inactive,–
C=CC[C@]12C(=O)C=C(OC)[C@]3(OC)[C@@H]1[C@]3(C)[C@H]2c1ccc2c(c1)OCO2,–,–,inactive,–
C=CCC1=C[C@]2(OC)C(=CC1=O)O[C@H](c1ccc3c(c1)OCO3)[C@H]2C [DENUDATIN A],–,–,–,cytotoxicity [3]: 23.2%
C=CCC1=CC(OC)(/C(C)=C/c2ccc3c(c2)OCO3)C(OC)=CC1=O (stereo not given) [FUTOQUINOL],55.3%,16.8 µM,–,inhibition (BV-2 [2]): Dose-dependent effect
C=CCC1=C[C@@]2(OC)C(=CC1=O)O[C@H](c1ccc(OC)c(OC)c1)[C@H]2C [KADSURENONE],–,–,inactive,cytotoxicity [3]: 21.3%
C=CCC1=CC2=C(OC)[C@H](C1=O)[C@]2(C)[C@H](O)c1ccc2c(c1)OCO2 [PIPERKADSIN C],60.8%,14.6 µM,–,Activity (BV-2 [4]): inactive; Activity [5]: Not Active; Activity [6]: Active; inhibition (BV-2 [2]): Dose-dependent effect
CNC(=N)NCCC[C@H](N)C(=O)O [TILARGININE],55.3%,16.8 µM,–,–
C=CCC1=CC(OC)(/C(C)=C/c2ccc(OC)c(OC)c2)C(OC)=CC1=O (stereo not given) [WALLICHININE],18.5%,45.6 µM,–,–
